The text below walks through data of paper PMC7995829 (ACS chemical biology, 2020).

Molecules are shown by their SMILES. Where two headings read alike, the source gives them in different places.

Test [1] has as its target T1, BglX (Pseudomonas aeruginosa, UniProt Q9I311). Description: inhibition assay. Type of test: biochemical.
The target of test [2] is T1, BglX. Description: inhibition assay. Type of test: biochemical. The settings on record: nonsubstrate, weak inhibitor.

`OC[C@H]1NC[C@H](O)[C@@H](O)[C@@H]1O` [NOJ, 1-deoxynojirimycin] had an inhibitory constant (Ki) in test [1] of 4.4 ± 0.5 mM.
In test [2], `OC[C@H]1O[C@@H](O[C@H]2[C@H](O)[C@@H](O)C(O)O[C@@H]2CO)[C@H](O)[C@@H](O)[C@H]1O` (stereo partly shown) [lactose] showed an inhibition constant (Ki) of more than 50 mM.
On the same count and under the same terms, next, `OC[C@H]1O[C@@H](O[C@H]2[C@H](O)[C@@H](O)C(O)O[C@@H]2CO)[C@H](O)[C@@H](O)[C@@H]1O` (stereo partly shown) [cellobiose]: more than 50 mM.
Same read-out and setting: the figure for `OC1OC[C@@H](O[C@@H]2OC[C@@H](O[C@@H]3OC[C@@H](O)[C@H](O)[C@H]3O)[C@H](O)[C@H]2O)[C@H](O)[C@H]1O` (stereo partly shown) [xylotriose] is more than 50 mM.
